Measured values published in patent US20250049776A1, “AUTOPHAGY INDUCING COMPOUNDS AND USES THEREOF, IN PARTICULAR FOR A SYSTEMIC TREATMENT OF DISEASES AND CONDITIONS” (Samsara Therapeutics Inc., priority 2021, published 2025).
Counter-ions that a name gives are not always drawn.

What was measured:
[1] = tested on: U2OS cell line stabling expressing RFP-eGFP-hLC3b; assay: Tandem reporter assay (autophagic flux, RFP-only puncta); type: cell-based; conditions: Homo sapiens, RFP-only puncta as percentage of DMSO-treated control, 24 hours; for activity at 1 µM: read-out: Autolysosome % DMSO activity (compound concentration of 1 μM); for activity at 10 µM: read-out: Autolysosome % DMSO activity (compound concentration of 10 μM)
Procedure: Selected compounds of this invention were also assessed for their ability to stimulate autophagy using a U20S cell line stabling expressing RFP-eGFP-hLC3b (a tandem reporter cell line). During the process of autophagy, the cargo to be degraded is first enveloped by organelles called autophagosomes. These autophagosomes then fuse with lysosomes, causing them to become acidified and their digestive enzymes to become activated. The term “autophagic flux” is used to represent the dynamic process of autophagy: autophagic flux refers to the whole process of autophagy, including autophagosome formation, maturation, fusion with lysosomes, subsequent breakdown and the release of macromolecules back into the cytosol (Zhang X J, Chen S, Huang K X, Le W D. Why should autophagic flux be assessed? Acta Pharmacol Sin. 2013 May; 34(5): 595-9. doi: 10.1038/aps.2012.184. Epub 2013 Mar. 11). Compounds that stimulate autophagic flux stimulate the dynamic process of autophagy (the whole process of autophagy).
LC3b is a protein found in the membrane of autophagosomes which has been used to generate genetic reporters of autophagy in cells. In these systems a tandem fusion of LC3b is engineered with two fluorescent proteins of different wavelengths: one which is acid sensitive (for example eGFP, which fluoresces green) and the other which is acid insensitive (for example RFP, which fluoresces red). Cells expressing RFP-eGFP-hLC3b can be examined using fluorescent microscopy: the autophagosomes present will fluoresce in both channels (either yellow in an overlay of both channels or puncta that are present in both the individual red and green channels) but the autolysosomes present will fluoresce in the RFP (red) channel only. Using a fluorescent microscope, the number of autophagosomes and autolysosomes can be counted, allowing for the monitoring of both the induction of autophagy (total puncta count) and the rate of autophagic flux (ratio of red-only to red-and-green puncta). The influence of small molecules on autophagy induction and flux can be assessed using this system by comparison to a non-treated control.
Representative Procedure: Human osteosarcoma U2OS cells stably expressing RFP-eGFP-hLC3b were seeded (10,000 cells/well) into a 96-well glass-bottom plate (Cell Carrier Ultra, Perkin Elmer) in DMEM Glutamax media (Gibco) supplemented with 10% Fetal Bovine Serum (FBS) and antibiotics (100 u/ml penicillin, 100 μg/ml streptomycin, Invitrogen), then incubated overnight in a humified atmosphere at 37° C. and 5% CO2. The cells were then treated with the compounds of interest, dissolved in DMSO, in a duplicated 5- or 10-point dose-response. 8 wells were treated with an equivalent volume of DMSO, 4 with 0.3 μM torin-1 as a positive control (MCE) and 4 wells with 0.4 μM torin-1 plus 0.2 μM bafilomycin (MCE) as a control for flux inhibition. The cells were returned to the incubator and the treatment continued for 24 hours. After treatment, the media was aspirated off and the cells fixed with a solution of 4% formaldehyde+1% glutaraldehyde (Sigma) in dPBS (plus magnesium and calcium, Gibco).
Fixation was allowed to proceed for 15 minutes at room temperature then the fixative solution discarded and replaced with PBS (Gibco) plus Hoescht 33342 ([…], Sigma). After 30 minutes the plates were imaged on an Opera Phenix confocal microscope (Perkin-Elmer) using a 40× water objective, collecting using DAPI, mCherry and GFP channels. Cells were detected based upon the staining of their nuclei with DAPI using the Harmony image analysis software (Perkin-Elmer) and the number of autophagosomes (GFP and RFP puncta) and autolysosomes (RFP only puncta) per cell were counted using the spot picking function within the software.

[2] = tested on: Human osteosarcoma U20S cells; assay: Assay to measure lysosome and autolysosome formation (acidic vesicle formation, LysoView/LysoTracker staining); type: cell-based; conditions: Homo sapiens; U2OS cells, concentration of 0.8 μM; read-out: Activity (percentage increase in acidic vesicle formation over the DMSO-treated control), Table 2
Outline: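 U2OS cells treated with compounds in DMSO for 24 h, then stained 45 min at 37 °C with 1× LysoView 633 or 50 nM LysoTracker Deep Red, with Hoechst nuclear counterstain. Live-cell fluorescence imaging at 37 °C; acidic vesicle formation judged against DMSO-treated control.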

| SMILES | activity at 1 µM [1] [%] | activity at 10 µM [1] [%] | activation at 0.8 µM [2] [%] |
| --- | --- | --- | --- |
| CC(C)N(C(=O)c1csc(-c2cnn(-c3ccccc3)c2)n1)C1CCNCC1 [Compound 163, N-isopropyl-2-(1-phenyl-1H-pyrazol-4-yl)-N-(piperidin-4-yl)thiazole-4-carboxamide hydrochloride] | 144 | 187 | 10 to 30 |
| CCCN(C(=O)c1csc(-c2cnn(-c3ccccc3)c2)n1)[C@@H]1CCNC1 [Compound 171, (R)-2-(1-phenyl-1H-pyrazol-4-yl)-N-propyl-N-(pyrrolidin-3-yl)thiazole-4-carboxamide hydrochloride] | 200 | 294 | 10 to 30 |
